From ChEMBL document CHEMBL6083202, “The isolation of sclerotinin A as an anti-malarial compound by utilization of a global secondary metabolism regulator, laeA gene” (Bioorg Med Chem Lett, 2024)
Values after ≈ are worked out from the molar mass of the structure shown. Active and inactive are the calls of the source. The calls are words filed in the database; no cut-off is given here.

How the values were obtained:
Plasmodium falciparum [1] = experiment: Antimalarial activity against chloroquine-sensitive Plasmodium falciparum FCR3; type: functional, organism-based
[2] = Selectivity index, ratio of IC50 for human A549 cells to IC50 for chloroquine-sensitive Plasmodium falciparum FCR3; type: toxicity, cell-based; settings: read-out: Ratio IC50
[3] = Cytotoxicity against human A549 cells; type: toxicity, cell-based
[4] = Selectivity index, ratio of IC50 for human HeLa cells to IC50 for chloroquine-sensitive Plasmodium falciparum FCR3; type: toxicity, cell-based; settings: read-out: Ratio IC50
[5] = Selectivity index, ratio of IC50 for human MRC5 cells to IC50 for chloroquine-resistant Plasmodium falciparum K1; type: toxicity, cell-based; settings: read-out: Ratio IC50
[6] = Selectivity index, ratio of IC50 for human HeLa cells to IC50 for chloroquine-resistant Plasmodium falciparum K1; type: toxicity, cell-based; settings: read-out: Ratio IC50
[7] = Cytotoxicity against human MRC5 cells; type: toxicity, cell-based
[8] = Selectivity index, ratio of IC50 for human HepG2 cells to IC50 for chloroquine-sensitive Plasmodium falciparum FCR3; type: toxicity, cell-based; settings: read-out: Ratio IC50
Saccharomyces cerevisiae = experiment: Antifungal activity against multidrug sensitive Saccharomyces cerevisiae 12gene mutant 0HSR-iERG6 at 10 ug; type: functional, organism-based; settings: dose 10.0 µg
[9] = Selectivity index, ratio of IC50 for human HepG2 cells to IC50 for chloroquine-resistant Plasmodium falciparum K1; type: toxicity, cell-based; settings: read-out: Ratio IC50
[10] = Selectivity index, ratio of IC50 for human MRC5 cells to IC50 for chloroquine-sensitive Plasmodium falciparum FCR3; type: toxicity, cell-based; settings: read-out: Ratio IC50
[11] = Cytotoxicity against human HeLa cells; type: toxicity, cell-based
[12] = Selectivity index, ratio of IC50 for human A549 cells to IC50 for chloroquine-resistant Plasmodium falciparum K1; type: toxicity, cell-based; settings: read-out: Ratio IC50
[13] = Cytotoxicity against human HepG2 cells; type: toxicity, cell-based
Plasmodium falciparum [14] = experiment: Antimalarial activity against chloroquine-resistant Plasmodium falciparum K1; type: functional, organism-based

## Cc1c(O)c(C)c2c(c1O)C(=O)OC(C)(O)[C@H]2C (stereo not given in full)
Plasmodium falciparum [1]
  IC50: 0.62 µg/mL (≈ 2.46 µM)
[2]
  selectivity ratio: 25.6
[3]
  IC50: 15.9 µg/mL (≈ 63 µM)
[4]
  selectivity ratio: 15.9
[5]
  selectivity ratio: 1.4
[6]
  selectivity ratio: 11.4
[7]
  IC50: 1.2 µg/mL (≈ 4.76 µM)
[8]
  selectivity ratio: 6.31
Saccharomyces cerevisiae
  Activity: inactive
[9]
  selectivity ratio: 4.49
[10]
  selectivity ratio: 2
[11]
  IC50: 9.88 µg/mL (≈ 39.2 µM)
[12]
  selectivity ratio: 18.3
[13]
  IC50: 3.91 µg/mL (≈ 15.5 µM)
Plasmodium falciparum [14]
  IC50: 0.87 µg/mL (≈ 3.45 µM)
